Experimental findings from PMC12040169 (PLOS Biology, 2025) are described below.

One may read the viability as a read-out of living cells in per cent, often relative to untreated cells.

This data set can be described thus: in vitro. Particulars: human, hela cells, % viability.
Turning to `Cc1ccc(Cl)cc1N1CCN(CC(O)COCc2ccc3c(c2)OCO3)CC1` (stereo not drawn) [CBK278308C], the viability at 28.5 h, 10 µM came out at 106%.

With `N=C(N)SCc1ccc(CSC(=N)N)cc1` [CBK278309C], the viability at 28.5 h, 10 µM was 84.5%.

As to `O=C(O)c1nsnc1C(=O)O` [CBK278311K], the viability at 28.5 h, 10 µM was 114%.

For `COc1ccc(-c2ccc(CNCCCN3CCOCC3)o2)cc1Cl` [CBK278312C], the viability at 28.5 h, 10 µM is 103%.

For `COc1ccc(CCc2nc(C)cc(CN(C)C)c2O)cc1` [CBK278313C], the viability at 28.5 h, 10 µM is 106%.

On to `N=C(N)SCCCCCSC(=N)N` [CBK278314B], for which the viability at 28.5 h, 10 µM is 88.2%.

On to `OC(COCc1ccc(Cl)cc1)CN1CCN(c2cccc(Cl)c2)CC1` (stereo not drawn) [CBK278315C], for which the viability at 28.5 h, 10 µM is 87.9%.

With `CN(C)Cc1cc(CN(C)C)c(O)c(CCc2ccccc2)n1` [CBK278316C], the viability at 28.5 h, 10 µM came out at 90.9%.

As for `N=C(N)SCc1ncccc1O` [CBK278318C], the viability at 28.5 h, 10 µM stood at 102%.

With `O=S(=O)(O)c1cc(S(=O)(=O)O)c2cc(O)c(S(=O)(=O)O)cc2c1` [CBK278319N], the viability at 28.5 h, 10 µM is 96.7%.

As for `COc1ccc(CCc2nc(C)cc(CN(C)C)c2O)cc1OC` [CBK278320C], the viability at 28.5 h, 10 µM is 89%.

As to `Cc1cc(NC(=O)CN2CCN(c3ccccc3)CC2)c2ccccc2n1` [CBK278322G], the viability at 28.5 h, 10 µM turned out to be 99.5%.

In the case of `COc1ccccc1N1CCN(CC(O)COCc2ccc3c(c2)OCO3)CC1` (stereo not drawn) [CBK278323C], the viability at 28.5 h, 10 µM was found to be 101%.

Consider `CN1CCN(c2cc(CNC(=O)c3cc(=O)[nH]c4ccccc34)ccn2)CC1` [CBK279658], for which the viability at 28.5 h, 10 µM is 101%.

Regarding `CS(=O)(=O)N(CCc1ccccc1)CC(=O)O` [CBK281244], the viability at 28.5 h, 10 µM turned out to be 109%.

On to `COc1ccccc1C1(O)CC2CCC(C1)N2` (stereo not drawn) [CBK281369], for which the viability at 28.5 h, 10 µM came out at 81.9%.

With `CC(=O)N1CC(C(=O)Nc2ncc(-c3ccccc3)n2C)C1` [CBK281373], the viability at 28.5 h, 10 µM is 96.1%.

Turning to `CCn1cncc1C(=O)N1CCCC1(C)C(=O)NC1CCCC1` (stereo not drawn) [CBK281376], the viability at 28.5 h, 10 µM amounted to 81.2%.

With `Cc1nc(NC(=O)Cn2c3c(c4ccccc42)CCC3)nn1C` [CBK281377], the viability at 28.5 h, 10 µM stood at 85.5%.

As for `O=C(NCC1(c2ccccc2F)CCCC1)c1cc[nH]c(=O)c1` [CBK281378], the viability at 28.5 h, 10 µM turned out to be 112%.

`CC(C)c1nccn1-c1ccc(NC(=O)CCCn2ccnc2)cc1` [CBK281380]: the viability at 28.5 h, 10 µM turned out to be 93%.

`Cc1cc(S(=O)(=O)NCCn2nc(C)c(C)c2C)ccc1F` [CBK281382]: the viability at 28.5 h, 10 µM was found to be 71.9%.

With `Cc1ccc(CS(=O)(=O)NCCn2nc(C)c(C)c2C)cc1` [CBK281383], the viability at 28.5 h, 10 µM was 91.2%.

For the compound `CCn1cnc2cc(NC(=O)C3CC4C=CC3C43CC3)ccc21` (stereo not drawn) [CBK281384], the viability at 28.5 h, 10 µM was 73.8%.

Consider `Cc1ncncc1C(=O)N1CCc2sccc2C1c1ccccc1` (stereo not drawn) [CBK281386], for which the viability at 28.5 h, 10 µM worked out at 113%.

As to `COc1ccc2[nH]cc(C(=O)NCCn3nc(C)c(C)c3C)c2c1` [CBK281389], the viability at 28.5 h, 10 µM amounted to 88.2%.

For the compound `CCn1c(CNC(=O)C(C)Cn2cc(Cl)cn2)nc2ccccc21` (stereo not drawn) [CBK281392], the viability at 28.5 h, 10 µM came out at 91.9%.

As to `CCn1c(CNC(=O)c2cc(C(C)C)on2)nc2ccccc21` [CBK281393], the viability at 28.5 h, 10 µM turned out to be 94.2%.

Consider `CCn1c(CNC(=O)c2cn3ccc(C)cc3n2)nc2ccccc21` [CBK281394], for which the viability at 28.5 h, 10 µM came to 91.2%.

`CCn1c(CNC(=O)c2cn3cc(C)ccc3n2)nc2ccccc21` [CBK281395]: the viability at 28.5 h, 10 µM is 89.4%.

On to `O=C(Nc1ccc(Cn2cncn2)cc1)C1CC2C=CC1C21CC1` (stereo not drawn) [CBK281399], for which the viability at 28.5 h, 10 µM was 88.2%.

On to `CCN1CC(C(=O)NCc2ccc(CN3CCCCC3)cc2)CC1=O` (stereo not drawn) [CBK281400], for which the viability at 28.5 h, 10 µM was 87.3%.

Turning to `CCn1cnc2cc(NC(=O)c3ccc(C)n(C)c3=O)ccc21` [CBK281402], the viability at 28.5 h, 10 µM was 106%.

For the compound `Cc1nc(-c2ccc(NC(=O)CC(C)n3cccn3)cc2)cs1` (stereo not drawn) [CBK281403], the viability at 28.5 h, 10 µM amounted to 98.4%.

In the case of `N[C@@H]1CCCN(C(=O)c2ccccc2)[C@H]1c1ccccc1F` [CBK281405], the viability at 28.5 h, 10 µM came out at 106%.

Regarding `COc1ccc(C(C)NC(=O)c2c3c(nn2C)CCCC3)cc1F` (stereo not drawn) [CBK281406], the viability at 28.5 h, 10 µM worked out at 106%.

Take `O=C(CN1CCCCCC1=O)Nc1nc(-c2ccccc2F)cs1` [CBK281408]: the viability at 28.5 h, 10 µM is 104%.

Turning to `Cc1nccn1-c1ccc(NC(=O)c2ccn(C(F)F)n2)cc1` [CBK281410], the viability at 28.5 h, 10 µM is 110%.

With `Cc1nn(C)cc1-c1cc(C(=O)Nc2ccccc2C2CC2)on1` [CBK281412], the viability at 28.5 h, 10 µM was 95.9%.

Regarding `CC(NC(=O)c1ccc(=O)n(C)n1)c1ccc2c(c1)CCCC2` (stereo not drawn) [CBK281416], the viability at 28.5 h, 10 µM came to 91.9%.

As for `Cc1nn(CCC(=O)NC(C)Cc2ccccn2)c(C)c1Cl` (stereo not drawn) [CBK281419], the viability at 28.5 h, 10 µM was determined as 97.1%.

In the case of `Cc1noc(C)c1CC(=O)NCc1ccc(CN2CCCCC2)cc1` [CBK281422], the viability at 28.5 h, 10 µM came out at 93.6%.

For `Cc1ccc2oc(C(=O)N3CCN(CC(=O)N(C)C)CC3)c(C)c2c1` [CBK281423], the viability at 28.5 h, 10 µM turned out to be 94.2%.

Turning to `COc1ccc2c(c1)c(C)c(C(=O)NC(C)Cc1ccccn1)n2C` (stereo not drawn) [CBK281425], the viability at 28.5 h, 10 µM stood at 98.6%.

On to `OC(CN1CCC(Oc2ccccc2F)CC1)c1cccs1` (stereo not drawn) [CBK281433], for which the viability at 28.5 h, 10 µM came to 95.2%.

`Cn1nc(C(=O)NCC2(c3cccc(F)c3)CCCC2)ccc1=O` [CBK281437]: the viability at 28.5 h, 10 µM was found to be 86.9%.

Consider `Cc1nc(C)c(CC(=O)NC(c2ccncc2)c2cccs2)s1` (stereo not drawn) [CBK281439], for which the viability at 28.5 h, 10 µM turned out to be 96.6%.

Regarding `O=C(C1CC2C=CC1C21CC1)N1CCN(Cc2ccccn2)CC1` (stereo not drawn) [CBK281443], the viability at 28.5 h, 10 µM was found to be 86.3%.

`CCc1nccn1CCC(=O)Nc1ccc2c(c1)CCN2C(C)=O` [CBK281446]: the viability at 28.5 h, 10 µM worked out at 90.9%.

Take `CC(NC(=O)CN1CCCCCC1=O)c1cc2cc(Cl)ccc2o1` (stereo not drawn) [CBK281448]: the viability at 28.5 h, 10 µM is 87.7%.

Regarding `Cc1cc(C)n(Cc2cccc(C(=O)NC(C)Cc3ccccn3)c2)n1` (stereo not drawn) [CBK281449], the viability at 28.5 h, 10 µM turned out to be 102%.

On to `Cc1nc2ccc(Cl)cn2c1CN1CCN(C2CCCC2)C(=O)C1` [CBK281452], for which the viability at 28.5 h, 10 µM was 84%.

As for `Cc1nn(-c2ccc(F)cc2)c(C)c1CNC(=O)CCC1CCCO1` (stereo not drawn) [CBK281456], the viability at 28.5 h, 10 µM came to 86.8%.

In the case of `COc1ccc(CCn2cncc2-c2cnn(C)c2)cc1C` [CBK281457], the viability at 28.5 h, 10 µM came out at 107%.

Consider `Cc1ccc(CS(=O)(=O)NCc2ccccc2-n2ccnc2)cc1` [CBK281462], for which the viability at 28.5 h, 10 µM came to 96.5%.

As to `c1ccc(-n2cc(-c3cncn3CCCN3CCCCC3)cn2)cc1` [CBK281465], the viability at 28.5 h, 10 µM was 92.4%.

As to `Cc1noc(C)c1CC(=O)NC(C)c1nc2ccccc2s1` (stereo not drawn) [CBK281467], the viability at 28.5 h, 10 µM was found to be 107%.

Turning to `O=C(c1cc2c(F)cccc2[nH]1)N1CCC(Oc2cccnc2)CC1` [CBK281468], the viability at 28.5 h, 10 µM stood at 103%.

For the compound `CC(=O)N1CCc2cc(NC(=O)C3CC4C=CC3C43CC3)ccc21` (stereo not drawn) [CBK281472], the viability at 28.5 h, 10 µM was 79.8%.

Take `Cc1ccc(C)c(C(NC(=O)CCCn2ccnc2)c2ccncc2)c1` (stereo not drawn) [CBK281476]: the viability at 28.5 h, 10 µM turned out to be 96.1%.
